Results from patent US20100061928A1, “LABELLED ANALOGUES OF HALOBENZAMIDES AS RADIOPHARMACEUTICALS” (Institut National De La Sante et De La Recherche Medicale …, priority 2006, published 2010).
Structures can show the parent of a compound that is named as a salt.

Columns and labels:
[1] = system: human melanoma (M4Beu); assay: Cytotoxicity, Hoechst test, M4Beu
Experimental: (§1) The B16 F0, M4Beu and fibroblast lines are cultured in 75 cm^2 dishes comprising 12 ml of Eagle's essential medium with Earle's salts and Glutamax (Gibco-BRL, Paisley, Scotland) supplemented with 10% foetal calf serum, a solution of vitamins at 1× (Gibco), 1 mM sodium pyruvate (Gibco), a solution of nonessential amino acids at 1× (Gibco) and 4 μg/ml of gentamicin (antibiotic).
(§2) The cells are maintained at 37° C. in an incubator under an atmosphere comprising 5% CO2.
(§3) The cells (5×10^3) in 150 μl of culture medium are inoculated in 96-well plates (Nunclon™, Nunc, Roskilde, Denmark). […] The stock solutions (200×) are prepared with DMSO and are then stored at −20° C. 50 μl of a solution comprising stock solution and culture medium are subsequently added to the various wells (taking into account the different dilutions). Each test is carried out in triplicate.
(§4) The amount of cellular DNA is subsequently measured by the Hoechst test. […] The fluorescence obtained is measured using a Fluoroskan 96-well at the excitation wavelength at 360 nm and emission wavelength at 460 nm. Under these conditions, the fluorescence is proportional to the cell biomass in each well. The percentage of survival is defined by the fluorescence in each well (treated) with respect to the fluorescence of the control wells (drug-free), the blanks being subtracted (drug-free and cell-free wells).

[2] = system: murine melanoma (B16 F0); assay: Cytotoxicity, Hoechst test, B16 F0; conditions: for IC50: read-out: IC50 B16, B16 F0 murine melanoma, 48 hours incubation, Hoechst test
Experimental: as §1, §2, §3
The amount of cellular DNA is subsequently measured by the Hoechst test. The plates are then defrosted at ambient temperature for 10 minutes. 100 μl of a 0.01% (w/v) solution of SDS (sodium dodecyl sulphate) in sterile distilled water are subsequently added using a microvolume dispenser. The plates (96 well) are incubated with stirring at ambient temperature for 30 minutes and are then frozen at −80° C. for one hour. The plates are subsequently defrosted at ambient temperature for 20 minutes. […] The plates are then incubated for one hour at ambient temperature, with stirring and with the exclusion of light. The fluorescence obtained is measured using a Fluoroskan 96-well at the excitation wavelength at 360 nm and emission wavelength at 460 nm. Under these conditions, the fluorescence is proportional to the cell biomass in each well. The percentage of survival is defined by the fluorescence in each well (treated) with respect to the fluorescence of the control wells (drug-free), the blanks being subtracted (drug-free and cell-free wells).

[3] = system: human fibroblast cell lines; assay: Cytotoxicity, Hoechst test, human fibroblasts; conditions: read-out: IC50 Fibroblast; human fibroblasts, 48 hours incubation, Hoechst test
Experimental: as §1, §2, §3, §4

[4] = system: B16 F0 murine melanoma cells; assay: Colony forming technique: chemotherapeutic and radiotherapeutic (^125I) effects in vitro; type: cell-based; conditions: for % of inhibition: radiotherapeutic effects alone; for % of inhibition (Radiotherapeutic effects alone): 125I-labelled, high specific activity
Experimental: The colony forming technique is involved, that is to say the growth of colonies of clones starting from tumour cells (B16 F0 murine melanoma cells) inoculated at a low concentration. This method makes it possible to visualize the cytotoxic and cytostatic properties of the compounds studied. The study was carried out in three parts:
The experiment is carried out on 6-well plates where 200 cells are inoculated in 2 ml of DMEM medium. After 20 hours, the medium is withdrawn and replaced with 2 ml of medium comprising the labelled compound at the desired concentration. This study is carried out in comparison with control wells comprising DMEM medium alone. […] The plates are incubated for 8 days and then the medium is withdrawn. The wells are rinsed with PBS and methanol is added for 3 minutes. Once attached, the cells are coloured with crystal violet with a contact time of 3 minutes. Subsequently, the colonies comprising more than 50 cells are counted using a dedicated counter. The growth of the treated colonies of cells is quantified in comparison with the controls. The activity of the product is expressed by a percentage of inhibition:
100−[(number of treated colonies)/(number of control colonies)]×100

[5] = system: melanoma grafted subcutaneously (B16 F0 cells); assay: Antitumour effectiveness by systemic administration after labelling with ^131I; type: in vivo, C57BL6 mice
Experimental: The study relates to 20 C57B16 mice bearing a melanoma grafted subcutaneously by injection of 50 000 B16 F0 cells (0.1 ml). On the 17th day, the animals are weighed and the tumours are measured in two dimensions (L, l), the tumour volume being expressed by L×l^2×½. On the 18th day (D18), the mice are divided into two groups, the labelled compound [^131I]-31 with a high specific activity is administered by the i.v. route (37 MBq; 0.2 ml) to 10 mice and 10 constitute the control batch. The monitoring of the animals is carried out with all the necessary radioprotection measures and in particular the removal of the contaminated bedding, the animals are weighed and the tumours are measured every two days. Taking into account the volume of the tumours and ethical considerations, the surviving animals were euthenized on the 20th day after injection, i.e. 38 days after the tumour graft. […] The evaluation of the effectiveness of an i.v. administration of [^131I]-31 on tumour growth of C57BL6 mice which have received a subcutaneous graft of B 16 melanoma 18 days before treatment is represented in FIG. 2. The times on the abscissa are given with respect to the day of inoculation of the tumours and with respect to the day of treatment.
The evaluation of the effectiveness of an i.v. administration of [^131I]-46 on tumour growth of C57BL6 mice which have received a subcutaneous graft of B 16 melanoma is represented in FIG. 3. The times on the abscissa are given with respect to the day of inoculation of the tumours and with respect to the first day of treatment. Under these conditions, the median of survival is extended and changes from 32 days for the control animals to 39 days for the treated animals. This experiment was repeated according to the same protocol and fully superimposable results were obtained.

[6] = system: tumour; assay: Dosimetry with regard to the tumour (MIRD programme, extrapolated to ^131I); conditions: for Effective period: extrapolated to 131I labelling; for Biological period: from biodistribution data
[7] = system: grafted B16 F0 murine melanoma tumour; assay: Biodistribution of the ^125I-labelled molecules in the melanoma-bearing mouse (autoradiography of whole-body sections)
[8] = single i.v. administration 37 MBq on D18 after graft, versus controls

SMILES: CN(C)CCNC(=O)c1cccc2cc3ccccc3nc12 [DACA, reference compound]
- IC50 ([1]; read-out: IC50 M4Beu, M4Beu human melanoma, 48 hours incubation, Hoechst test): 1800 nM
- IC50 [2]: 190 nM
- IC50 [3]: 7.1 µM

SMILES: [125I-].[Na+] [Na^125I, sodium iodide Na^125I, reference compound]
- effect on colony growth (in words) ([4]; comparison for the compounds labelled with iodine-125 with a high specific activity): without effect

SMILES: CCN(CC)CCNC(=O)c1cccc2c(=O)c3cc([125I])ccc3[nH]c12.Cl.Cl [[^125I]-84, [^125I]-N-(2-diethylaminoethyl)-9,10-dihydro-7-iodo-9-oxoacridine-4-carboxamide dihydrochloride]
- Cumulative effect (% inhib) ([4]; cold compound 84 at 0.75 μM with labelled [^125I]-84, activity 0): 17.3 % inhib
- Cumulative effect (% inhib) ([4]; cold compound 84 at 0.75 μM with labelled [^125I]-84, activity 1.5 kBq): 18.3 % inhib
- Cumulative effect (% inhib) ([4]; cold compound 84 at 0.75 μM with labelled [^125I]-84, activity 6 kBq): 22 % inhib
- Cumulative effect (% inhib) ([4]; cold compound 84 at 0.75 μM with labelled [^125I]-84, activity 12 kBq): 40.3 % inhib
- Cumulative effect (% inhib) ([4]; cold compound 84 at 0.75 μM with labelled [^125I]-84, activity 24 kBq): 54 % inhib
- Cumulative effect (% inhib) ([4]; cold compound 84 at 0.75 μM with labelled [^125I]-84, activity 48 kBq): 88 % inhib
- % of inhibition ([4]; activity 1.5 kBq, concentration 9.31 pM): 4.5%
- % of inhibition ([4]; activity 6 kBq, concentration 37.23 pM): 12.4%
- % of inhibition ([4]; activity 12 kBq, concentration 74.5 pM): 29%
- % of inhibition ([4]; activity 24 kBq, concentration 148.9 pM): 30%
- % of inhibition ([4]; activity 48 kBq, concentration 297.8 pM): 69%

SMILES: CCN(CC)CCNC(=O)c1cccc2cc3cccc([125I])c3nc12.Cl.Cl [[^125I]-102, [^125I]-N-(2-diethylaminoethyl)-5-iodoacridine-4-carboxamide dihydrochloride]
- % of inhibition (Radiotherapeutic effects alone) ([4]; 1.39 kBq, 8.625 pM): 11%
- % of inhibition (Radiotherapeutic effects alone) ([4]; 2.78 kBq, 17.25 pM): 14.3%
- % of inhibition (Radiotherapeutic effects alone) ([4]; 5.55 kBq, 34.5 pM): 40.3%
- % of inhibition (Radiotherapeutic effects alone) ([4]; 11.1 kBq, 69 pM): 65.5%
- % of inhibition (Radiotherapeutic effects alone) ([4]; 16.7 kBq, 103.5 pM): 79%
- % of inhibition (Radiotherapeutic effects alone) ([4]; 22.2 kBq, […]): 96.1%
- Cumulative effect (% inhib) (Radiotherapeutic and chemotherapeutic effects) ([4]; cold compound 102 at 6.25 nM with [125I]-102 1.39 kBq): 30%
- Cumulative effect (% inhib) (Radiotherapeutic and chemotherapeutic effects) ([4]; cold compound 102 at 6.25 nM with [125I]-102 2.78 kBq): 37.5%
- Cumulative effect (% inhib) (Radiotherapeutic and chemotherapeutic effects) ([4]; cold compound 102 at 6.25 nM with [125I]-102 5.55 kBq): 59.5%
- Cumulative effect (% inhib) (Radiotherapeutic and chemotherapeutic effects) ([4]; cold compound 102 at 6.25 nM with [125I]-102 11.1 kBq): 76.5%
- Cumulative effect (% inhib) (Radiotherapeutic and chemotherapeutic effects) ([4]; cold compound 102 at 6.25 nM with [125I]-102 16.7 kBq): 89%

SMILES: CCN(CC)CCNC(=O)c1ccc2cc([131I])ccc2n1.Cl.Cl [[^131I]-31, [^131I]-N-(2-diethylaminoethyl)-6-iodoquinoline-2-carboxamide dihydrochloride]
- median of survival (in words) [5, 8]: a significant difference regarding the median of survival was not demonstrated
- tumour growth (in words) [5, 8]: markedly slowed down

SMILES: CCN(CC)CCNC(=O)c1cnc2cc([131I])ccc2n1.Cl [[^131I]-46, [^131I]-N-(2-diethylaminoethyl)-6-iodoquinoxaline-2-carboxamide hydrochloride]
- tumour growth (in words) ([5]; two doses of 18.5 MBq i.v., 6 and 10 days after induction of the tumours): clearly slowed down
- median of survival, treated animals ([5]; two doses of 18.5 MBq i.v., 6 and 10 days after induction of the tumours, control animals 32 days): 39 days

SMILES: COc1cc(NS(C)(=O)=O)ccc1Nc1c2ccccc2nc2ccccc12 [amsacrine, reference compound]
- IC50 [2]: 35 nM

SMILES: CCN(CC)CCNC(=O)c1cccc2cc3cccc(I)c3nc12 [compound 102, N-(2-diethylaminoethyl)-5-iodoacridine-4-carboxamide dihydrochloride]
- cytotoxic activity compared with DACA (in words) ([2]; various cell lines studied (B16 F0, M4Beu, fibroblasts)): greater activity than the parent compound
- Effective period [6]: 35.4 h
- Biological period [6]: 43.3 hours
- Biodistribution, Mean, GB ([7]; 1 H): 281.34
- Biodistribution, Mean, GB ([7]; 6 H): 281.20
- Biodistribution, Mean, muscle ([7]; 1 H): 2.34
- Biodistribution, Mean, muscle ([7]; 3 H): 1.34
- Biodistribution, Mean, muscle ([7]; 6 H): 1.36

SMILES: CCN(CC)CCNC(=O)c1cccc2c(Nc3ccc(NS(C)(=O)=O)cc3OC)c3cc(I)ccc3nc12 [compound 129, N-(2-diethylaminoethyl)-7-iodo-9-(4-methanesulphonamido-2-methoxyanilino)acridine-4-carboxamide dihydrochloride]
- cytotoxic effectiveness (in words) ([1]; M4Beu human cells, compared with amsacrine): best effectiveness with regard to the M4Beu human cells, close to the values obtained for amscrine
- Effective period [6]: 88.3 h
- Biological period [6]: 162.3 hours
- Biodistribution, Mean, GB ([7]; 1 H): 20.19
- Biodistribution, Mean, GB ([7]; 6 H): 166.43
- Biodistribution, Mean, brain ([7]; 1 H): 0.12
- Biodistribution, Mean, brain ([7]; 3 H): 0.03
- Biodistribution, Mean, muscle ([7]; 3 H): 0.48
- Biodistribution, Mean, muscle ([7]; 6 H): 0.44
- Biodistribution, Mean, thyroid ([7]; thyroid, 6 H): 34.81
